The text below walks through data of PubChem BioAssay (NCI).

Some test systems named below: HCT-116 colon; HOP-92 NSCLC; ACHN renal; HCT-15 colon; HL-60(TB) leukemia; MDA-MB-231 breast; DU-145 prostate; TK-10 renal; SK-OV-3 ovarian; RXF 393 renal; MDA-MB-435; NCI-H23 lung; EKVX NSCLC; HCC-2998 colon; OVCAR-3 ovarian; LOX IMVI melanoma; SK-MEL-5 melanoma; M14 melanoma.
Holding throughout (assay): NCI anticancer screen, dose series, 48 h

SMILES strings stand for the structures.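 Step 1: Grow cells in 96-well plates. Step 2: Expose to compound for 48 hours at 5 concentrations. Step 3: Interpolate endpoints linearly; if unreached, use highest concentration. TGI: concentration producing complete growth inhibition.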

Regarding `CCCN(CCCCC(NC(C)=O)C(=O)NCc1ccccc1)C(=O)N(CCCl)N=O` (stereo unspecified), the TGI in the experiment on HCT-116 colon was more than 100 µM; in the experiment on HOP-92 NSCLC, more than 100 µM; with ACHN renal it was more than 100 µM; in the experiment with HCT-15 colon, more than 100 µM; with HL-60(TB) leukemia, more than 86 µM; in the experiment on MDA-MB-231 breast, more than 100 µM. The TGI is more than 100 µM with DU-145 prostate; more than 100 µM with TK-10 renal; more than 100 µM in the experiment with SK-OV-3 ovarian; 98.9 µM in the experiment on RXF 393 renal; more than 100 µM with MDA-MB-435; 98.5 µM with NCI-H23 lung. For the same molecule, the TGI with EKVX NSCLC, in the experiment on HCC-2998 colon, in the experiment with OVCAR-3 ovarian, in the experiment with LOX IMVI melanoma, in the experiment on SK-MEL-5 melanoma and in the experiment with M14 melanoma was more than 100 µM throughout.

As for `CCOC(=O)C(Cl)(NC(=O)c1ccc(F)cc1)C(F)(F)F` (stereo unspecified), the TGI in the experiment on HCT-116 colon, with HOP-92 NSCLC, with ACHN renal, in the experiment with HCT-15 colon, in the experiment on HL-60(TB) leukemia and in the experiment with MDA-MB-231 breast was more than 100 µM each time. Moreover, the TGI in the experiment on DU-145 prostate, in the experiment on TK-10 renal, with SK-OV-3 ovarian, in the experiment on RXF 393 renal, with MDA-MB-435 and with NCI-H23 lung was more than 100 µM in each case. Besides, the TGI in the experiment with EKVX NSCLC, in the experiment with HCC-2998 colon, in the experiment on OVCAR-3 ovarian, with LOX IMVI melanoma, with SK-MEL-5 melanoma and with M14 melanoma was more than 100 µM each time.

In the case of `O=C(CNc1ccc(Cl)cc1)Nn1c(-c2ccccc2)nc2ccccc2c1=O`, the TGI in the experiment on HCT-116 colon amounted to 4.65 µM; in the experiment with HOP-92 NSCLC, 13.4 µM; in the experiment with ACHN renal it was 22.3 µM; in the experiment on HCT-15 colon it was 18.9 µM; in the experiment on HL-60(TB) leukemia it was 32.1 µM; in the experiment on MDA-MB-231 breast, 13.6 µM. Besides, the TGI in the experiment with DU-145 prostate was determined as 28.5 µM; in the experiment on TK-10 renal, 30.5 µM; in the experiment on SK-OV-3 ovarian it was 27.8 µM; in the experiment on RXF 393 renal, 17.4 µM; in the experiment on MDA-MB-435 it was 23.2 µM; in the experiment on NCI-H23 lung it was 18 µM. Further, the TGI in the experiment with EKVX NSCLC came to 35.7 µM; with HCC-2998 colon, 23.5 µM; with OVCAR-3 ovarian, 25.8 µM; in the experiment on LOX IMVI melanoma, 4.12 µM; with SK-MEL-5 melanoma it was 7.09 µM; in the experiment with M14 melanoma it was 20.3 µM.

For the molecule `Cn1c(=O)c2c(nc(NCCCCl)n2CC(=O)NCCCCl)n(C)c1=O`, the TGI in the experiment with HCT-116 colon, in the experiment with HOP-92 NSCLC, in the experiment with ACHN renal, in the experiment on HCT-15 colon, in the experiment with HL-60(TB) leukemia and with MDA-MB-231 breast was more than 100 µM in each case. Besides, the TGI with DU-145 prostate, with TK-10 renal, in the experiment with SK-OV-3 ovarian, in the experiment on RXF 393 renal, in the experiment on MDA-MB-435 and in the experiment on NCI-H23 lung was more than 100 µM each time. The TGI in the experiment on EKVX NSCLC, in the experiment on HCC-2998 colon, in the experiment with OVCAR-3 ovarian, in the experiment with LOX IMVI melanoma, in the experiment on SK-MEL-5 melanoma and with M14 melanoma was more than 100 µM each time.

Take `O=C1C(Br)=CC2(C=C1Br)CCN=c1c(O)c3c(c(O)c12)=NC=N3`: the TGI with HCT-116 colon was found to be 30.3 µM; with HOP-92 NSCLC it was 24.8 µM; with ACHN renal it was 27.7 µM; in the experiment on HCT-15 colon it was 29.1 µM; in the experiment on HL-60(TB) leukemia it was 35 µM; in the experiment on MDA-MB-231 breast it was 29.4 µM. The TGI with DU-145 prostate came out at 29.6 µM; in the experiment on TK-10 renal, 59 µM; in the experiment with SK-OV-3 ovarian, 48.2 µM; in the experiment with RXF 393 renal it was 29.9 µM; in the experiment with MDA-MB-435, 23.4 µM; in the experiment on NCI-H23 lung, 26.9 µM. Also, the TGI in the experiment on EKVX NSCLC worked out at 32 µM; in the experiment with HCC-2998 colon, 46.3 µM; in the experiment with OVCAR-3 ovarian it was 29.1 µM; in the experiment on LOX IMVI melanoma, 27.1 µM; in the experiment with SK-MEL-5 melanoma, 23.4 µM; in the experiment with M14 melanoma it was 30.6 µM.

Turning to `N#Cc1nc(COCCOCc2ccccc2)oc1N`, the TGI in the experiment on HCT-116 colon, with HOP-92 NSCLC, in the experiment with ACHN renal, in the experiment on HCT-15 colon, with HL-60(TB) leukemia and with MDA-MB-231 breast was more than 100 µM in each case. Further, the TGI with DU-145 prostate, in the experiment on TK-10 renal, in the experiment on SK-OV-3 ovarian, with RXF 393 renal, in the experiment with MDA-MB-435 and in the experiment on NCI-H23 lung was more than 100 µM in each case. The TGI in the experiment with EKVX NSCLC, in the experiment with HCC-2998 colon, in the experiment with OVCAR-3 ovarian, in the experiment on LOX IMVI melanoma, with SK-MEL-5 melanoma and in the experiment on M14 melanoma was more than 100 µM in each case.

As to `COc1ccc(-c2c(C(C)=O)c(-c3ccccc3)n(C3OC(COC(C)=O)C(OC(C)=O)C(OC(C)=O)C3OC(C)=O)c(=S)c2C#N)cc1` (stereo unspecified), the TGI was more than 100 µM in the experiment on HCT-116 colon; 71.7 µM with HOP-92 NSCLC; more than 100 µM in the experiment on ACHN renal; more than 100 µM in the experiment with HCT-15 colon; more than 100 µM in the experiment with HL-60(TB) leukemia; more than 100 µM in the experiment on MDA-MB-231 breast. Further, the TGI with DU-145 prostate, in the experiment on TK-10 renal, in the experiment with SK-OV-3 ovarian, in the experiment with RXF 393 renal, with MDA-MB-435 and in the experiment on NCI-H23 lung was more than 100 µM in each case. Also, the TGI with EKVX NSCLC, in the experiment with HCC-2998 colon, with OVCAR-3 ovarian, with LOX IMVI melanoma, in the experiment with SK-MEL-5 melanoma and in the experiment with M14 melanoma was more than 100 µM throughout.
